Measured values published in article PMC9821843, “Powerful Potential of Polyfluoroalkyl-Containing 4-Arylhydrazinylidenepyrazol-3-ones for Pharmaceuticals” (Molecules, 2022).
≈ marks a conversion by molar mass, not a printed value. Like-named read-outs stand apart in the source and are kept apart here.

What was measured:
[1] = target: porcine liver carboxylesterase (CES, EC 3.1.1.1) (Sus scrofa, UniProt Q29550); assay: Inhibition of porcine liver carboxylesterase (4-NPA colorimetric assay); assay type: biochemical; details: mean ± SEM, n = 3; for inhibition at 20 µM: n.a. = inactive at 20 µM
Chain of porcine liver carboxylesterase (CES, EC 3.1.1.1) (Q29550 19-566): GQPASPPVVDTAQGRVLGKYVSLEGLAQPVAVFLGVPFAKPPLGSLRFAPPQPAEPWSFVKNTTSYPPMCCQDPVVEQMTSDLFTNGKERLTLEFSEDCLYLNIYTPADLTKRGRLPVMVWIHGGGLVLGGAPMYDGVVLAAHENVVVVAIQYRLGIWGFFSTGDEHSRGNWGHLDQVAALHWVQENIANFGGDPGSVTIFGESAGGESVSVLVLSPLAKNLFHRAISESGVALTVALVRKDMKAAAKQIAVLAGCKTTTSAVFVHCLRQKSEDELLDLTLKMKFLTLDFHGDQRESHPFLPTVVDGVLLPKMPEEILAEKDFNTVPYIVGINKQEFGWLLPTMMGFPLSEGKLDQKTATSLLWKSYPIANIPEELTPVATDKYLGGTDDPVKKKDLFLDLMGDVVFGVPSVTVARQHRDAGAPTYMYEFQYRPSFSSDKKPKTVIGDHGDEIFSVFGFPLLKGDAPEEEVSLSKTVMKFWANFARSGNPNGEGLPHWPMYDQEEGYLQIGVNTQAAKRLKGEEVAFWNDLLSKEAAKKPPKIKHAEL
From the text: (§1) The following enzymes were purchased from Sigma-Aldrich (Saint Louis, MO, USA): porcine liver carboxylesterase (CES, EC 3.1.1.1), human erythrocyte acetylcholinesterase (AChE, EC 3.1.1.7) and equine serum butyrylcholinesterase (BChE, EC 3.1.1.8). Substrates for CES, AChE and BChE were 4-nitrophenyl acetate (4-NPA), acetylthiocholine iodide (ATCh) and butyrylthiocholine iodide (BTCh), respectively, and the colorimetric reagent for the AChE and BChE assays was 5,5’-dithio-bis-(2-nitrobenzoic acid) (DTNB) (Sigma-Aldrich). All the kinetic experiments were performed under standard conditions, according to the protocol of IPAC RAS for a reversible inhibitors study.
The CES (porcine liver) activity was assessed colorimetrically in 0.1 M K/Na phosphate buffer pH 8.0, 25 °C, by measuring the absorbance of 4-nitrophenol at 405 nm. Final enzyme and substrate (4-NPA) concentrations were 0.02 unit/mL and 1 mM, respectively. Reagent blanks included all constituents except enzyme.
Test compounds were dissolved in DMSO. Reaction mixtures contained a final DMSO concentration of 2% (v/v). Enzyme inhibition was first assessed at a single concentration of 20 µM for each compound after a 5 min incubation at 25 °C in three separate experiments. […] Substrate was then added and residual enzyme activity relative to an inhibitor-free control was measured using a Bio-Rad Benchmark Plus microplate reader (Marnes-la-Coquette, France).
Measurements were performed in a Bio-Rad Benchmark Plus microplate reader. Each experiment was performed in triplicate. Plots, linear regressions and values of IC50, were determined using Origin 6.1 for Windows, OriginLab (Northampton, MA, USA). Results were calculated using GraphPad Prism version 6.05 for Windows, GraphPad Software (La Jolla, CA, USA) and presented as mean ± SEM.

[2] = target: T1, human erythrocyte acetylcholinesterase (AChE, EC 3.1.1.7) (Homo sapiens, UniProt P22303); assay: Inhibition of human erythrocyte acetylcholinesterase (Ellman assay); assay type: biochemical; details: read-out: Inhibition % at 20 µM, Human AChE
T1 construct: human erythrocyte acetylcholinesterase (AChE, EC 3.1.1.7); purchased Sigma-Aldrich (Saint Louis, MO, USA); host or cells: human erythrocytes
T1 sequence (P22303 32-617 isoform P22303-2 limits assumed): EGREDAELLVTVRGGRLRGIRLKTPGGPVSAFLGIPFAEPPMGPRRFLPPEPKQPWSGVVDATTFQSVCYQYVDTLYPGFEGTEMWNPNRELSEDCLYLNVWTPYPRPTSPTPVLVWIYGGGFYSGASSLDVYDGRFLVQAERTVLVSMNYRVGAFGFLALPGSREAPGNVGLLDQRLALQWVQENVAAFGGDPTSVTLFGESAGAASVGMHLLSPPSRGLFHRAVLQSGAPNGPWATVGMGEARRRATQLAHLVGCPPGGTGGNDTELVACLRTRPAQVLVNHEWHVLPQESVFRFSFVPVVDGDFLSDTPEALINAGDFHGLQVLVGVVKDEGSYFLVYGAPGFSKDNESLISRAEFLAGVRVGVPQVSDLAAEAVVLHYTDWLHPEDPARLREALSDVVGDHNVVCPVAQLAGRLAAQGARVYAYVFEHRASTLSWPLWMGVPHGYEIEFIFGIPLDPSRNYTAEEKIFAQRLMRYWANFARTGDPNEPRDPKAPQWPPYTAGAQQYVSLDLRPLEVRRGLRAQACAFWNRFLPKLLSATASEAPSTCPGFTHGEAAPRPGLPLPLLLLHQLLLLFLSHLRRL
From the text: as §1
Reagent blanks consisted of reaction mixtures without enzyme to assess non-enzymatic hydrolysis of substrates.
Test compounds were dissolved in DMSO. Reaction mixtures contained a final DMSO concentration of 2% (v/v). […] Measurements were performed in a Bio-Rad Benchmark Plus microplate reader. Each experiment was performed in triplicate. Plots, linear regressions and values of IC50, were determined using Origin 6.1 for Windows, OriginLab (Northampton, MA, USA).

[3] = target: T2, equine serum butyrylcholinesterase (BChE, EC 3.1.1.8) (Equus caballus, UniProt P81908); assay: Inhibition of equine serum butyrylcholinesterase (Ellman assay); assay type: biochemical; details: read-out: Inhibition % at 20 µM, Equine BChE
T2 construct: equine serum butyrylcholinesterase (BChE, EC 3.1.1.8); purchased Sigma-Aldrich (Saint Louis, MO, USA); host or cells: equine serum
T2 sequence (P81908 whole entry): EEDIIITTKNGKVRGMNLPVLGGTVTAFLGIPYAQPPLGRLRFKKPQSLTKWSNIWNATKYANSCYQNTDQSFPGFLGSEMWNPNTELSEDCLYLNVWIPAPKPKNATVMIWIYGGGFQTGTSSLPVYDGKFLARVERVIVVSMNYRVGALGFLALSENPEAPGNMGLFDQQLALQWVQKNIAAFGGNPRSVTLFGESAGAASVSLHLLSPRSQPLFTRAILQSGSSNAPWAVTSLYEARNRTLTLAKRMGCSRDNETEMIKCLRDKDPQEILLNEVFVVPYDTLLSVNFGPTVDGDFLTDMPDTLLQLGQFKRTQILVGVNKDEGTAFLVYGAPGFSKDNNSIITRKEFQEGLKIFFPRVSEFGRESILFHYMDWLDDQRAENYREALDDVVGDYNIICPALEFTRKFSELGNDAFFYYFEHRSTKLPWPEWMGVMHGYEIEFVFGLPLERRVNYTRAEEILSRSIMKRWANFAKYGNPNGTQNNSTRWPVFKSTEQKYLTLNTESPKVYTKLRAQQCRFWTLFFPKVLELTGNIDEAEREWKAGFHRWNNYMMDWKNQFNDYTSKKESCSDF
From the text: as §1
Final concentrations of reactants were 0.33 mM DTNB, 0.02 unit/mL of AChE or BChE and 1 mM of substrate (ATCh or BTCh, respectively). Reagent blanks consisted of reaction mixtures without enzyme to assess non-enzymatic hydrolysis of substrates.
Test compounds were dissolved in DMSO. Reaction mixtures contained a final DMSO concentration of 2% (v/v). […] Substrate was then added and residual enzyme activity relative to an inhibitor-free control was measured using a Bio-Rad Benchmark Plus microplate reader (Marnes-la-Coquette, France).
Measurements were performed in a Bio-Rad Benchmark Plus microplate reader. Each experiment was performed in triplicate. Plots, linear regressions and values of IC50, were determined using Origin 6.1 for Windows, OriginLab (Northampton, MA, USA).

[4] = Oxygen radical absorbance capacity (ORAC-FL) assay; details: n.a. = inactive; i.t.s. = interferes with test system
From the text: We evaluated the primary antioxidant activity of synthesized 4-AHPs 5–9 in comparison with their non-fluorinated analogues 9a,b using three standard tests: ABTS, FRAP (ferric reducing antioxidant power) and ORAC (oxygen radical absorbance capacity) assays. The ABTS assay evaluates the binding of a model ABTS radical cation (ABTS^•+), which is realized by the mechanism of single electron transfer (SET) and/or hydrogen atom transfer (HAT). The FRAP assay measures the ability of compounds to reduce the ferric 2,4,6-tripyridyl-s-triazine complex [Fe(TPTZ)2]^3+ to [Fe(TPTZ)2]^2+, which occurs exclusively by the SET mechanism. The ORAC-FL assay measures the oxidative degradation of the fluorescent molecule (FL – fluorescein) after being mixed with a free peroxyl radical generator such as 2,2′-azobis-(2-methylpropionamidine) dihydrochloride (AAPH) in the presence of antioxidant (tested compound). The ORAC-FL test describes the antioxidants’ ability to yield the hydrogen atom and, consequently, it is a HAT-based assay. Trolox was used in all tests as a reference antioxidant: the antioxidant activity of the test compounds was referred to the activity of Trolox. The well-known antioxidant Edaravone was also used for comparison.
The ORAC assay was performed according to the known method, with minor variations and described by us recently.

[5] = system: Neisseria gonorrhoeae ATCC 49226/NCTC 12700; assay: Antibacterial activity against Neisseria gonorrhoeae; assay type: cell-based; details: read-out: MIC against Neisseria gonorrhoeae
Method: Antibacterial activity testing was done on the growth medium Difco GC medium base (Becton Dickinson, Franklin Lakes, NJ, USA) supplemented with 1% IsoVitaleX. Dilutions of chemical compounds were carried out in the range of 250–0.12 μg/mL in 24 well sterile plates (Sarstedt, Germany). Daily cultures of control bacterial strains were identified on a VITEK MS analyzer (BioMérieux, Marcy-l’Étoile, France) by MALDI-TOF mass spectrometry. The inoculation dose of N. gonorrhoeae inoculum was 10^5 CFU/mL.

[6] = Acute toxicity evaluation in mice (ip); details: CD-1, mouse, in vivo, 300 mg/kg
Method: The toxicity evaluation was performed on CD-1 mice. […] The tested compounds in 1% starch mucilage were injected intraperitoneally into three mice. Then, animals were observed during 14 days, the number of deaths was counted and % of viability calculated.

[7] = system: Sprague-Dawley (SD) rats; assay: Hot plate test (analgesic activity); assay type: in vivo; details: ip; for change in vivo at 15 mg/kg: Rattus norvegicus
Method: The hot plate test was conducted according to established guidelines on Sprague-Dawley (SD) rats (3 male and 3 female rodents per group). The compounds were intraperitoneally administered in the form of suspensions in 1% starch mucilage. Negative control group animals received vehicle only (1% starch mucilage). Diclofenac sodium (Hemofarm, Vršac, Serbia, 10 mg/kg in 1% starch mucilage solution) or metamizole sodium (PAO Biosynthesis, Sun Pharma, Penza, Russia, 15 mg/kg in 1% starch mucilage solution) were used as reference drugs. One and two hours after the injection, rats were placed on an electrically heated to 50 °C plate (Hot plate 60,200 series, TSE-systems, Bad Homburg, Germany) in a Plexiglas cylindrical restrainer (19 cm diameter × 30 cm). The nociceptive response time was measured by observing the appearance of rats’ movements (e.g., jumping, hind paw licking or shaking). Maximal cutoff time was set as 30 s regardless of the response in order to preclude skin damage.
Differences between the values of the latency period for the treated (experimental) and control groups of animals were considered significant at p ≤ 0.05.

[8] = system: Microsporum canis RCPF F 1643/1585; assay: Antifungal susceptibility testing, M. canis; details: Microsporum canis, RCPFF1643/1585, read-out: MIC for fungi strains inhibition, M. canis
From the text: (§2) The solvent was DMSO. […] In each test, a growth control and a sterility control were used.

[9] = system: Trichophyton rubrum RCPF F 1408; assay: Antifungal susceptibility testing, T. rubrum; details: Trichophyton rubrum, RCPFF1408, read-out: MIC for fungi strains inhibition, T. rubrum
From the text: as §2

[10] = system: Candida albicans RCPF Y 401/NCTC 885/653; assay: Antifungal susceptibility testing, C. albicans; details: NCTC885, read-out: MIC for fungi strains inhibition, C. albicans
From the text: as §2

[11] = system: Epidermophyton floccosum RCPF F 1659/17; assay: Antifungal susceptibility testing, E. floccosum; details: Epidermophyton floccosum, RCPFF1659/17, read-out: MIC for fungi strains inhibition, E. floccosum
From the text: as §2

[12] = ABTS radical cation scavenging activity assay; details: mean ± SEM
Method: Radical scavenging activity of the compounds was evaluated by the ABTS radical cation (ABTS^•+) scavenging assay by the ability of the compounds to decolorize the ABTS^•+ solution [112] with some modifications. Trolox was used as a reference standard. Edaravone was used as the comparison compound. All tested compounds and standards were dissolved in DMSO. ABTS (2,2′-azinobis-(3-ethylbenzothiazoline-6-sulfonic acid)) was purchased from Tokyo Chemical Industry Co. Ltd. (Tokyo, Japan). Potassium persulfate (di-potassium peroxdisulfate), Trolox® (6-hydroxy-2,5,7,8-tetramethychroman-2-carboxylic acid), ascorbic acid, DMSO and HPLC-grade ethanol were obtained from Sigma-Aldrich Chemical Co. Aqueous solutions were prepared using deionized water.
The solution of ABTS^•+ was produced by mixing 7 mM ABTS aqueous solution with 2.45 mM potassium persulfate aqueous solution in equal quantities and allowing them to react for 12–16 h at room temperature in the dark. Radical scavenging capacity of the compounds was analyzed by mixing 10 μL of compound with 240 μL of ABTS^•+ working solution in ethanol (100 μM final concentration), and after 1 h of incubation at 30 °C the decrease in absorbance was measured spectrophotometrically at 734 nm using a Bio-Rad xMark microplate UV/VIS spectrophotometer (Bio-Rad, Hercules, CA, USA). The compounds were tested in the concentration range of 5 × 10^–7–4 × 10^–4 M. Ethanol blanks were run in each assay. Values were obtained from five replicates of each sample and three independent experiments.
Antioxidant activity was calculated as Trolox equivalent antioxidant capacity (TEAC values), consisting of the ratio between the slopes obtained from the linear correlation for concentrations of the tested compounds and Trolox with absorbance of ABTS radical. For the test compounds, which reduce ABTS^•+ absorbance by more than 60% at 100 µM, we also determined IC50 values as 50% reduction of the ABTS radical. The calculations were carried out using Origin 6.1 for Windows. Results were presented as mean ± SEM, calculated using GraphPad Prism version 6.05 for Windows, GraphPad Software.

[13] = hot plate test, rats, dose 15 mg/kg, 1 h, n.a. = inactive (p > 0.05), read-out: Latent Period Prolongation, % 1 h
[14] = hot plate test, rats, dose 15 mg/kg, 2 h, n.a. = inactive (p > 0.05), read-out: Latent Period Prolongation, % 2 h

Row | SMILES | inhibition at 20 µM [1] | inhibition at 20 µM [2] | inhibition at 20 µM [3] | ORAC-FL (TE, antioxidant activity in Trolox equivalents) [4] | MIC [5] | survival at 14 days [6] | change in vivo at 15 mg/kg [7, 13] | change in vivo at 15 mg/kg [7, 14] | MIC [8] | MIC [9] | MIC [10] | MIC [11] | IC50 [12] | ABTS•+-scavenging activity, TEAC (trolox equivalent antioxidant capacity) ([12]; n.a. = inactive) | change in vivo at 15 mg/kg ([7]; 1 h, read-out: Latent Period Prolongation, % 1 h) | change in vivo at 15 mg/kg ([7]; 2 h, read-out: Latent Period Prolongation, % 2 h) | analgesic activity in the hot plate test ([7]; SD rats, dose 15 mg/kg, 1 and 2 h) | IC50 ([1]; read-out: Inhibitory Activity IC50 ± SEM, Porcine CES)
1 | CS(=O)(=O)c1ccc(N/N=C2\C(=O)N(c3ccccc3)N=C2C(F)(F)C(F)(F)F)cc1 [6h, (4Z)-4-(2-[4-(Methylsulfonyl)phenyl]hydrazinylidene)-5-(pentafluoroethyl)-2-phenyl-2,4-dihydro-3H-pyrazol-3-one] | 30.8 ± 2.7% | 4.1 ± 0.8% | 5.2 ± 0.9% | i.t.s. | 250 mg/L (≈ 543 µM) | 100% | 80% | 98% | > 200 mg/L | > 200 mg/L | > 200 mg/L | > 200 mg/L |  |  |  |  |  | 
2 | Cc1ccc(N/N=C2\C(=O)N(c3ccccc3)N=C2C(F)(F)C(F)(F)C(F)(F)C(F)(F)F)cc1 [8b, (4Z)-5-(Nonafluorobutyl)-4-[2-(4-methylphenyl)hydrazinylidene]-2-phenyl-2,4-dihydro-3H-pyrazol-3-one] | 12.1 ± 1.9% | 9 ± 1.4% |  |  | > 250 mg/L | 100% |  |  |  |  |  |  | > 400 µM | 0.05 ± 0.03 | 95.2% | 125% |  | 
3 | O=C1/C(=N\Nc2ccc(S(=O)(=O)O)cc2)C(C(F)(F)F)=NN1c1ccccc1 [5o, (4Z)-4-(2-[4-(Sulfo)phenyl]hydrazinylidene)-2-phenyl-5-(trifluoromethyl)-2,4-dihydro-3H-pyrazol-3-one] | 5.2 ± 1% |  | 7.4 ± 1.2% | i.t.s. | 62.5 mg/L (≈ 152 µM) | 100% | 109% | 54% |  |  |  |  |  |  |  |  |  | 
4 | O=C1/C(=N\Nc2ccc(Cl)cc2Cl)C(C(F)(F)C(F)(F)F)=NN1c1ccccc1 [6f, (4Z)-4-[2-(2,4-Dichlorophenyl)hydrazinylidene]-5-(pentafluoroethyl)-2-phenyl-2,4-dihydro-3H-pyrazol-3-one] | 6.6 ± 0.9% | 3.4 ± 0.7% | 4.3 ± 0.8% |  | > 250 mg/L | 100% |  |  | > 200 mg/L | > 200 mg/L | > 200 mg/L | 200 mg/L (≈ 443 µM) |  |  |  |  | inactive | 
5 | O=[N+]([O-])c1ccc(OP(=O)(O)Oc2ccc([N+](=O)[O-])cc2)cc1 [BNPP, reference compound] |  |  |  |  |  |  |  |  |  |  |  |  |  |  |  |  |  | 1.8 ± 0.11 µM
